Measurements: ChEMBL document CHEMBL2417377, “Hit-to-lead optimization and kinase selectivity of imidazo[1,2-a]quinoxalin-4-amine derived JNK1 inhibitors” (Bioorg Med Chem Lett, 2013)

What was measured:
Settings in all cases: PC-3
[1] = biological target: T1, Eukaryotic translation initiation factor 2-alpha kinase 3 (Homo sapiens) (UniProt Q9NZJ5); assay: Inhibition of PEK in human PC3 cell lysates at 10 uM using desthiobiotin-tagged ATP probe AX9989 followed by trypsinization by LC/MS analysis
T1 sequence (whole entry): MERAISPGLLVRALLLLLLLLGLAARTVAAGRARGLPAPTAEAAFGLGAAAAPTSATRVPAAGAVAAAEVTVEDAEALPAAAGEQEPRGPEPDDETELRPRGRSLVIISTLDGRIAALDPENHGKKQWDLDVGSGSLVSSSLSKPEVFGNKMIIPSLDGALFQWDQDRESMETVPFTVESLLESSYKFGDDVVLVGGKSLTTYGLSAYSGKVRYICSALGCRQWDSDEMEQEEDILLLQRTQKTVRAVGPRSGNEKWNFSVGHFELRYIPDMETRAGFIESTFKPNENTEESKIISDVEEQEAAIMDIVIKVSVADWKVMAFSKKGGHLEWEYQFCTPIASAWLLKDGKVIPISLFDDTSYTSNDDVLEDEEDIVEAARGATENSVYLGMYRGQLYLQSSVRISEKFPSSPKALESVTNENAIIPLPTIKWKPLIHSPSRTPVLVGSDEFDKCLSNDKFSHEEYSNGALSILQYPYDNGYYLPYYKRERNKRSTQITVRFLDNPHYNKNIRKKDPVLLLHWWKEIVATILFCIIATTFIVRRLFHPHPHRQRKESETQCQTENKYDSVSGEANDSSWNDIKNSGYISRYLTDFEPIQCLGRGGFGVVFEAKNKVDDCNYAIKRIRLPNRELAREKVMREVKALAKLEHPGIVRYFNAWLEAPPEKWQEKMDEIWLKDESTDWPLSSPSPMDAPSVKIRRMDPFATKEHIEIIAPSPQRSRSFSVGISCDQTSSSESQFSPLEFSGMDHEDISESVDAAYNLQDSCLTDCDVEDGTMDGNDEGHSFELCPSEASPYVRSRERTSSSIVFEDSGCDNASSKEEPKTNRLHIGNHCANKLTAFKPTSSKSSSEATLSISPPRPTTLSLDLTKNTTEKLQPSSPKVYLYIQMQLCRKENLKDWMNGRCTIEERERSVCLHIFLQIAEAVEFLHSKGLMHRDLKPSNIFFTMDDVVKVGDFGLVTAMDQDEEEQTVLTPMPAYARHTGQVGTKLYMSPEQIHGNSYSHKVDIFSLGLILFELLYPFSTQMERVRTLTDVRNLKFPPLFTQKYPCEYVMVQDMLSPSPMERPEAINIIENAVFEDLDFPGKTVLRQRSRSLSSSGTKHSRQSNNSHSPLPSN

[2] = biological target: eIF-2-alpha kinase GCN2 (Homo sapiens) (UniProt Q9P2K8); assay: Inhibition of GCN2 in human PC3 cell lysates at 10 uM using desthiobiotin-tagged ATP probe AX9989 followed by trypsinization by LC/MS analysis
[3] = biological target: Tyrosine-protein kinase Yes (Homo sapiens) (UniProt P07947); assay: Inhibition of YES in human PC3 cell lysates at 10 uM using desthiobiotin-tagged ATP probe AX9989 followed by trypsinization by LC/MS analysis
[4] = biological target: T2, Peripheral plasma membrane protein CASK (Homo sapiens) (UniProt O14936); assay: Inhibition of CASK in human PC3 cell lysates at 10 uM using desthiobiotin-tagged ATP probe AX9989 followed by trypsinization by LC/MS analysis
T2 sequence (whole entry): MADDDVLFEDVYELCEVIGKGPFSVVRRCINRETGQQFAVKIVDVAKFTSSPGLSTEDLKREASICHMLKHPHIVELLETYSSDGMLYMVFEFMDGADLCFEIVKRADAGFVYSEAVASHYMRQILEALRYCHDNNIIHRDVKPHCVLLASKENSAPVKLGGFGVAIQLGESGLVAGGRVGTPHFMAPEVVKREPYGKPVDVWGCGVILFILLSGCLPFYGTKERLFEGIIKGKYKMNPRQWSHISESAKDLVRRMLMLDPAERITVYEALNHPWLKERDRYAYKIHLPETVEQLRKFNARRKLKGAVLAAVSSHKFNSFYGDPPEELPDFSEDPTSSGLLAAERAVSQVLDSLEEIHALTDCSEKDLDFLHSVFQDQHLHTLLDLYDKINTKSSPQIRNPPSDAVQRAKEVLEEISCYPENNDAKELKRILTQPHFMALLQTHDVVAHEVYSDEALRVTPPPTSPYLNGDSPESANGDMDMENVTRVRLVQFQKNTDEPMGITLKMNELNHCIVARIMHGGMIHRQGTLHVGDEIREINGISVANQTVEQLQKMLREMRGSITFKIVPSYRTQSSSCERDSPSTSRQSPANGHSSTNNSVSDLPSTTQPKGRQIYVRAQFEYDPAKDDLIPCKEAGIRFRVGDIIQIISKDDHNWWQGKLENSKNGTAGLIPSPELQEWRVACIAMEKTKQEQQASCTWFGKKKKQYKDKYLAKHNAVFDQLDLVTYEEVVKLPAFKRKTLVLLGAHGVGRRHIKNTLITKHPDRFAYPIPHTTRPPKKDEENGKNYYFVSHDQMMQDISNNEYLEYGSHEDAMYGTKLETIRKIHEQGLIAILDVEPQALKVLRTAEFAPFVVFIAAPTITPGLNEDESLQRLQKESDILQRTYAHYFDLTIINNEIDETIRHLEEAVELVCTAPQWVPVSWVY

[5] = biological target: Serine/threonine-protein kinase Nek7 (Homo sapiens) (UniProt Q8TDX7); assay: Inhibition of NEK7 in human PC3 cell lysates at 10 uM using desthiobiotin-tagged ATP probe AX9989 followed by trypsinization by LC/MS analysis
[6] = biological target: Ribosomal protein S6 kinase beta-1 (Homo sapiens) (UniProt P23443); assay: Inhibition of p70S6K in human PC3 cell lysates at 10 uM using desthiobiotin-tagged ATP probe AX9989 followed by trypsinization by LC/MS analysis
[7] = biological target: Serine/threonine-protein kinase Nek6 (Homo sapiens) (UniProt Q9HC98); assay: Inhibition of NEK6 in human PC3 cell lysates at 10 uM using desthiobiotin-tagged ATP probe AX9989 followed by trypsinization by LC/MS analysis
[8] = biological target: PI4KA/PI4KAP2 (Homo sapiens) (UniProt P42356+A4QPH2); assay: Inhibition of PI4KA/PI4KAP2 in human PC3 cell lysates at 10 uM using desthiobiotin-tagged ATP probe AX9989 followed by trypsinization by LC/MS analysis; format: protein-complex assay
[9] = biological target: Serine/threonine-protein kinase tousled-like 2 (Homo sapiens) (UniProt Q86UE8); assay: Inhibition of TLK2 in human PC3 cell lysates at 10 uM using desthiobiotin-tagged ATP probe AX9989 followed by trypsinization by LC/MS analysis
Serine/threonine-protein kinase tousled-like 2 (Homo sapiens), sequence (Q86UE8 whole entry, looked up): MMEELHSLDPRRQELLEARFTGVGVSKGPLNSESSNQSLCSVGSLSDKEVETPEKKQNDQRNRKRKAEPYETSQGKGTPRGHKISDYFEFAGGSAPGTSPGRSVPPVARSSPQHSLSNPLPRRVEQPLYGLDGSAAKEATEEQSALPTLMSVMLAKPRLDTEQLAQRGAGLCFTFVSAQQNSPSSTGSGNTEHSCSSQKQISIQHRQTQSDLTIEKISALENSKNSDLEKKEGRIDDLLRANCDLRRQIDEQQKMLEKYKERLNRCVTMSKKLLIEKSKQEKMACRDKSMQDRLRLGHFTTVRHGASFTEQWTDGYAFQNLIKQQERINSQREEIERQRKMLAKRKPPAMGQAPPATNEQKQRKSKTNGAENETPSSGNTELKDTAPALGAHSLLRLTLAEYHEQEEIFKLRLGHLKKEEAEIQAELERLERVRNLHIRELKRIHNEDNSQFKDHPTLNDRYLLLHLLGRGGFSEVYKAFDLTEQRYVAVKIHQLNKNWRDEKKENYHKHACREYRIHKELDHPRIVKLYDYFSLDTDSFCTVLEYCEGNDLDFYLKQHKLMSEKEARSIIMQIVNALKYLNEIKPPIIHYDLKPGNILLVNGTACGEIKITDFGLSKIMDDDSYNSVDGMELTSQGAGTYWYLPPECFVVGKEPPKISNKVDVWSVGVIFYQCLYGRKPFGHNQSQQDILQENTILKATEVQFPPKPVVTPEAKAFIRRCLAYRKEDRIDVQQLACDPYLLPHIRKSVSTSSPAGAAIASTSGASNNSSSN

Ribosomal protein S6 kinase beta-1 (Homo sapiens), sequence (P23443 whole entry, looked up): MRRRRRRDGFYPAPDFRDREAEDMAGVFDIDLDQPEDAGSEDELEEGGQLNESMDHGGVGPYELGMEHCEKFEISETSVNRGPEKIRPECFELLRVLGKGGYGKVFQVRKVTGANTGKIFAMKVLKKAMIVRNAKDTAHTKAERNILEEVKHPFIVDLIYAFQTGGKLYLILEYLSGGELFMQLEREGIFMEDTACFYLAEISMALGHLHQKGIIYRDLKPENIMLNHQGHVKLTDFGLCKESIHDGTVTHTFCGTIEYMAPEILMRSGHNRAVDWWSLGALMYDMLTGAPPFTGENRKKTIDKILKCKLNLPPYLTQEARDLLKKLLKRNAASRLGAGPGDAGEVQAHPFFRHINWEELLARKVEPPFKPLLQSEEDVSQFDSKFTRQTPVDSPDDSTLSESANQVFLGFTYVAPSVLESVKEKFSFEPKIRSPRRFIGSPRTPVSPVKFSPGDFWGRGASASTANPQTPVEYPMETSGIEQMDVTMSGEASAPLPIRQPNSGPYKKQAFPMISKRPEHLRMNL
eIF-2-alpha kinase GCN2 (Homo sapiens), sequence (Q9P2K8 whole entry): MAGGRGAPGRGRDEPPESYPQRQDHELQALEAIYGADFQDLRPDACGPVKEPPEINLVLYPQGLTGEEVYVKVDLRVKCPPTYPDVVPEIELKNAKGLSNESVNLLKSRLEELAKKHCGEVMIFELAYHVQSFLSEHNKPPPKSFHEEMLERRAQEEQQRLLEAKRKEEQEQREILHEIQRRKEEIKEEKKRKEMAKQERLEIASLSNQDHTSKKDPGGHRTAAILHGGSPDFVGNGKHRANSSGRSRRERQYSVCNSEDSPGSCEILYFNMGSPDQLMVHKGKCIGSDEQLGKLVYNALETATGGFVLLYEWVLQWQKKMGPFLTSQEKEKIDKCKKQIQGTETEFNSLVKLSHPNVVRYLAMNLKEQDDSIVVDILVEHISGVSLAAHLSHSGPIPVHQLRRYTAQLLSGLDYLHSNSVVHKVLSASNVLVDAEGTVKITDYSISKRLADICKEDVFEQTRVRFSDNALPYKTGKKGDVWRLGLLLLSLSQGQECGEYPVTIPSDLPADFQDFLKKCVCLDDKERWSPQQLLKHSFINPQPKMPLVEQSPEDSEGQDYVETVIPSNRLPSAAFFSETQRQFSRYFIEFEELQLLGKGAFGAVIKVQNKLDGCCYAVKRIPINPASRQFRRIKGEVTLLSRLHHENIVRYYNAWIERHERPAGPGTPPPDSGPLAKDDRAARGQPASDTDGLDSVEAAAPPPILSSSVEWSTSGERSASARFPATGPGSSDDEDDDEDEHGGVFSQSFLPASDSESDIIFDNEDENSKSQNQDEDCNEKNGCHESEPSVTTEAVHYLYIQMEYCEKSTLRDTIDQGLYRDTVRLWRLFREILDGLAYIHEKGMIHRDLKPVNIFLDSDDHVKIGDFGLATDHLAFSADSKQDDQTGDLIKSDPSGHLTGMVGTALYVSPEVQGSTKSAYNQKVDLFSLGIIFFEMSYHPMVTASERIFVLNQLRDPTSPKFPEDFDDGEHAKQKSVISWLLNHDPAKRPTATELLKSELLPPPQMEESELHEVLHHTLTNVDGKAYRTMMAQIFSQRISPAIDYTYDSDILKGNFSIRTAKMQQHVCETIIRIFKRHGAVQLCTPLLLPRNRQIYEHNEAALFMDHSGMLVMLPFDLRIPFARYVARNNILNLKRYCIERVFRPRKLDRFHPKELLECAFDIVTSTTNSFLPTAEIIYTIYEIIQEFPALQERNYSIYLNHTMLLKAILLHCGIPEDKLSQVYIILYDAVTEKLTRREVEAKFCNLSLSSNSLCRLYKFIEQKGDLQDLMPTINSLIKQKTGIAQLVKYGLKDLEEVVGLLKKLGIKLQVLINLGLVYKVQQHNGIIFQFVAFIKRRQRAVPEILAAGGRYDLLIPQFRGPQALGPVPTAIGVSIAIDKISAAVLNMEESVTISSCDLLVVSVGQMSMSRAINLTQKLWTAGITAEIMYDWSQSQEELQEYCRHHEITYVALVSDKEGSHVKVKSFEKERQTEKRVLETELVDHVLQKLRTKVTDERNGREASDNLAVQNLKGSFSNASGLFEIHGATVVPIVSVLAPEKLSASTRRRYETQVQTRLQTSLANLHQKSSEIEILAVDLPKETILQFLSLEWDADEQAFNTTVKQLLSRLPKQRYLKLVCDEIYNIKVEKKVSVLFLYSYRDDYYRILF
Tyrosine-protein kinase Yes (Homo sapiens), sequence (P07947 2-543 limits assumed): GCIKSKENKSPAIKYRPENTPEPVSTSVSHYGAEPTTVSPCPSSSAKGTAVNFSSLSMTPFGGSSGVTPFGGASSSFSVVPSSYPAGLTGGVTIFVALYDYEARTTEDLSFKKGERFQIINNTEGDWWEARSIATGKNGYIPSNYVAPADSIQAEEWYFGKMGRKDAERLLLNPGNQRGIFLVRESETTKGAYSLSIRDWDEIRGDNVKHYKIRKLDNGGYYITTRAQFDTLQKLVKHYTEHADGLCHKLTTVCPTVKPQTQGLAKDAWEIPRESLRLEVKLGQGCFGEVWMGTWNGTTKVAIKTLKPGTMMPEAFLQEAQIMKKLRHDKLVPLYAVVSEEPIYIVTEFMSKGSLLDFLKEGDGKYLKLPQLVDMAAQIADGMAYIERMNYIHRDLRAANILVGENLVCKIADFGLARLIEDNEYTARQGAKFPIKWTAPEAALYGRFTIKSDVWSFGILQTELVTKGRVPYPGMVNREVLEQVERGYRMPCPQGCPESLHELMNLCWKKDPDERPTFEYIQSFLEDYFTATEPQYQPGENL
Serine/threonine-protein kinase Nek6 (Homo sapiens), sequence (Q9HC98 whole entry): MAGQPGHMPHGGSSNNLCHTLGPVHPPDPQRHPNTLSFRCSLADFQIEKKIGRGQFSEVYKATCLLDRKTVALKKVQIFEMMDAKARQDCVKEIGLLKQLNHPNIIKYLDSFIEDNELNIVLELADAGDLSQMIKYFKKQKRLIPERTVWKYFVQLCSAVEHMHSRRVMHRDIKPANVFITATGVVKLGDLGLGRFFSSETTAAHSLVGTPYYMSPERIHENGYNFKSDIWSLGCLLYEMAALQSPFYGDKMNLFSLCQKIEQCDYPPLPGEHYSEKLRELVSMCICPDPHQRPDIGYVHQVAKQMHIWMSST
Serine/threonine-protein kinase Nek7 (Homo sapiens), sequence (Q8TDX7 whole entry, looked up): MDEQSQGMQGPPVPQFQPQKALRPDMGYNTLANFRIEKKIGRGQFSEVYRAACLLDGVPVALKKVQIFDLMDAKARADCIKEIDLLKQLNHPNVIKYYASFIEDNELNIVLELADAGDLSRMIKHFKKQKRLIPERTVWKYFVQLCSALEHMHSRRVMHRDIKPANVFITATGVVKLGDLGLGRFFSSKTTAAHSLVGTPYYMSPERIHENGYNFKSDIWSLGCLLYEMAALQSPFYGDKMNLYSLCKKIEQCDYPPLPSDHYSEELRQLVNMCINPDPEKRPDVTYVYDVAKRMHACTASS

Row | inhibition [1] | inhibition [2] | inhibition [3] | inhibition [4] | inhibition [5] | inhibition [6] | inhibition [7] | inhibition [8] | inhibition [9] | Compound
1 | < 35% | < 35% | < 35% | < 35% | < 35% | < 35% | < 35% | < 35% | < 35% | CCC[C@@H](NC(=O)c1ccc2nc(N[C@H]3CC[C@H](O)CC3)c3nccn3c2c1)c1ccccc1
2 | < 35% | < 35% | < 35% | < 35% | < 35% | < 35% | < 35% | < 35% | < 35% | NC(=O)c1ccc2nc(N[C@H]3CC[C@H](O)CC3)c3nccn3c2c1
3 | < 35% | < 35% | < 35% | < 35% | < 35% | < 35% | < 35% | < 35% | < 35% | O=C(NC1(c2ccccc2)CC1)c1ccc2nc(N[C@H]3CC[C@H](O)CC3)c3nccn3c2c1
4 | 37.5% | 41.7% | < 35% | < 35% | < 35% | < 35% | < 35% | 73.1% | < 35% | O=C(O)c1ccc2nc(N[C@H]3CC[C@H](O)CC3)c3nccn3c2c1
5 | < 35% | < 35% | < 35% | < 35% | < 35% | < 35% | < 35% | < 35% | < 35% | O=C(NC1(c2ccccc2)CCC1)c1ccc2nc(N[C@H]3CC[C@H](O)CC3)c3nccn3c2c1
6 | < 35% | < 35% | < 35% | < 35% | < 35% | < 35% | < 35% | < 35% | < 35% | C[C@H](NC(=O)c1ccc2nc(N[C@H]3CC[C@H](O)CC3)c3nccn3c2c1)c1ccccc1
7 | < 35% | < 35% | < 35% | < 35% | < 35% | < 35% | < 35% | < 35% | < 35% | O=C(NC1(c2ccc(F)cc2)CC1)c1ccc2nc(N[C@H]3CC[C@H](O)CC3)c3nccn3c2c1
8 | < 35% | 38.5% | < 35% | < 35% | < 35% | < 35% | < 35% | < 35% | < 35% | CC[C@@H](NC(=O)c1ccc2nc(N[C@H]3CC[C@H](O)CC3)c3nccn3c2c1)c1ccccc1
9 | < 35% | < 35% | < 35% | < 35% | < 35% | < 35% | < 35% | < 35% | < 35% | CC(C)(NC(=O)c1ccc2nc(N[C@H]3CC[C@H](O)CC3)c3nccn3c2c1)c1ccccc1
10 | 38.4% | 54% | < 35% | < 35% | < 35% | < 35% | < 35% | < 35% | < 35% | C[C@@H](NC(=O)c1ccc2nc(N[C@H]3CC[C@H](O)CC3)c3nccn3c2c1)c1ccccc1
11 | < 35% | 56.4% | < 35% | < 35% | < 35% | < 35% | < 35% | < 35% | < 35% | O=C(N[C@H](CO)c1ccccc1)c1ccc2nc(N[C@H]3CC[C@H](O)CC3)c3nccn3c2c1
12 | < 35% | < 35% | < 35% | < 35% | < 35% | < 35% | < 35% | < 35% | < 35% | O=C(NC1(Cc2ccc(F)cc2)CC1)c1ccc2nc(N[C@H]3CC[C@H](O)CC3)c3nccn3c2c1
